Where “and” joins values, the source holds several entries; their conditions need not be identical. Identical values can stand only once.
How the values were obtained:
[1] = target: T1, Prostaglandin G/H synthase 2 (Ovis aries, UniProt P79208); experiment: COX-1/COX-2 Inhibition Colorimetric Assay
T1 sequence (P79208 whole entry): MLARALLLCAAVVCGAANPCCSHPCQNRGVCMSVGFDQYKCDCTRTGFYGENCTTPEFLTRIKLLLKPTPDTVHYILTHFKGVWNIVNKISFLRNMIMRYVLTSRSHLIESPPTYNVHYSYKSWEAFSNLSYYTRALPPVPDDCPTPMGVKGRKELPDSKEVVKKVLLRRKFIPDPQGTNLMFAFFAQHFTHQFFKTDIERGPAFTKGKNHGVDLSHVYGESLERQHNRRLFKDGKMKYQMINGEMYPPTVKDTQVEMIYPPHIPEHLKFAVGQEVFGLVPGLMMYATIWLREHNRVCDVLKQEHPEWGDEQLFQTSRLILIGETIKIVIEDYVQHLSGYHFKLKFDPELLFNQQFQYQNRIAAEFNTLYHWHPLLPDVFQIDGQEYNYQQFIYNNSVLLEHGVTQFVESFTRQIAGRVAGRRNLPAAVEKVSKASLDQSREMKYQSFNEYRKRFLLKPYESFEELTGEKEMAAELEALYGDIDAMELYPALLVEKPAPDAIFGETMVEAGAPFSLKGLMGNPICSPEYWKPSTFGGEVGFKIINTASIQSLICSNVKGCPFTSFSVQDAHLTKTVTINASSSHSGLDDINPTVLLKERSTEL
Description: (§1) The in vitro inhibition of ovine COX-1 and COX-2 was measured using an enzyme immuno assay (EIA) kit (Cayman Chemical, Ann Arbor, MI, USA) according to the manufacturer's instructions and as reported before [Roschek et al., J. Med. Food., 12:615-623].

[2] = target: T2, Prostaglandin G/H synthase 1 (Ovis aries, UniProt P05979); experiment: COX-1/COX-2 Inhibition Colorimetric Assay
T2 sequence (P05979 whole entry): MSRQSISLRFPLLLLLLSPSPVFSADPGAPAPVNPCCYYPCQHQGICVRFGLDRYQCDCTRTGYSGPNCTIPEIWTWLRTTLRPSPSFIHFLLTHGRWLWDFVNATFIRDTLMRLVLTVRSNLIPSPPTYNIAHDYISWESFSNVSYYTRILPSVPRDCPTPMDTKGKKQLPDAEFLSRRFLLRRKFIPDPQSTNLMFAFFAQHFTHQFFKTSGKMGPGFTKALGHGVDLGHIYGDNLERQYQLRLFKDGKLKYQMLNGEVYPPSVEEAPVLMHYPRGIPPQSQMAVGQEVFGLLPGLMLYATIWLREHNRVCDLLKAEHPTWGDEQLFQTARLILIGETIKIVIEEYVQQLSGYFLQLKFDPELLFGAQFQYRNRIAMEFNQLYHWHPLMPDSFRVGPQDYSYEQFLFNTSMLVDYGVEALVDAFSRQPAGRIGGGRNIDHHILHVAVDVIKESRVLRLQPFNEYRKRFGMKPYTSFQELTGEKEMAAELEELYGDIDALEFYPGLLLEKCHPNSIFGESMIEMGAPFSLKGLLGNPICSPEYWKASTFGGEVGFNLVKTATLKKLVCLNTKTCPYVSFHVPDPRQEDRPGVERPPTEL
Description: as §1

SMILES	IC50 [1]	IC50 [2]
COc1ccc(C2CC(c3ccc(Cl)cc3)=NN2c2ccc(S(N)(=O)=O)cc2)cc1 (configuration not stated)	0.74 µM	6.52 µM
COc1cc(C2CC(c3ccc(Br)cc3)=NN2c2ccc(S(C)(=O)=O)cc2)cc(OC)c1OC (configuration not stated) [3-(4-Bromo-phenyl)-1-(4-methanesulfonyl-phenyl)-5-(3,4,5-trimethoxy-phenyl)-4,5-dihydro-1H-pyrazole (10g)]	0.98 µM	8.65 µM
COc1ccc(C2CC(c3ccc(Br)cc3)=NN2c2ccc(S(C)(=O)=O)cc2)cc1 (configuration not stated) [3-(4-Bromo-phenyl)-1-(4-methanesulfonyl-phenyl)-5-(4-methoxy-phenyl)-4,5-dihydro-1H-pyrazole (10k)]	0.63 µM	4.85 µM
COc1cc(C2CC(c3ccc(Cl)cc3)=NN2c2ccc(S(C)(=O)=O)cc2)cc(OC)c1OC (configuration not stated) [3-(4-Chloro-phenyl)-1-(4-methanesulfonyl-phenyl)-5-(3,4,5-trimethoxy-phenyl)-4,5-dihydro-1H-pyrazole (10h)]	0.42 µM and 2.98 µM	3.87 µM and 8.34 µM
COc1cc(C2CC(c3ccc(Br)cc3)=NN2c2ccc(S(N)(=O)=O)cc2)cc(OC)c1OC (configuration not stated) [4-[3-(4-Bromo-phenyl)-5-(3,4,5-trimethoxy-phenyl)-4,5-dihydropyrazol-1-yl]-benzene-sulfonamide (10a)]	0.78 µM	7.52 µM
NS(=O)(=O)c1ccc(N2N=C(c3ccc(Cl)cc3)CC2c2ccc(Cl)cc2)cc1 (configuration not stated) [4-[3-(4-Chloro-phenyl)-5-(4-chloro-phenyl)-4,5-dihydro-pyrazol-1-yl]-benzene-sulfonamide (10d)]	0.9 µM	5.11 µM

Further molecules by falling IC50 [1], results first:

IC50 [1]	IC50 [2]	SMILES
3.41 µM	10.2 µM	COc1ccc(C2CC(c3ccc(Cl)cc3)=NN2c2ccc(S(C)(=O)=O)cc2)cc1 (configuration not stated) [3-(4-Chloro-phenyl)-1-(4-methanesulfonyl-phenyl)-5-(4-methoxy-phenyl)-4,5-dihydro-1H-pyrazole (10l)]
1.52 µM	9.89 µM	CS(=O)(=O)c1ccc(N2N=C(c3ccc(Cl)cc3)CC2c2ccc(Cl)cc2)cc1 (configuration not stated) [3,5-Bis-(4-chloro-phenyl)-1-(4-methanesulfonyl-phenyl)-4,5-dihydro-1H-pyrazole (10j)]
1.43 µM	6.87 µM	NS(=O)(=O)c1ccc(N2N=C(c3ccc(Br)cc3)CC2c2ccc(Cl)cc2)cc1 (configuration not stated) [4-[3-(4-Bromo-phenyl)-5-(4-chloro-phenyl)-4,5-dihydro-pyrazol-1-yl]-benzene-sulfonamide (10c)]
0.63 µM	5.17 µM	COc1ccc(C2CC(c3ccc(Br)cc3)=NN2c2ccc(S(N)(=O)=O)cc2)cc1 (configuration not stated) [UNM-0000306138]
0.22 µM	3.41 µM	COc1cc(C2CC(c3ccc(Cl)cc3)=NN2c2ccc(S(N)(=O)=O)cc2)cc(OC)c1OC (configuration not stated) [4-[3-(4-Chloro-phenyl)-5-(3,4,5-trimethoxy-phenyl)-4,5-dihydropyrazol-1-yl]-benzene-sulfonamide (10b)]

Source: BindingDB's records for doi:10.1016/j.bioorg.2016.11.008 (Beni-Suef University, 2017)
